Results on 99 compounds are retold here after ChEMBL document CHEMBL3507680, “University of Dundee, Gates Library screen for HepG2 cell viability”.

The series can be described thus: Human HepG2 cell viability assay in 384 well format. It is filed as toxicity, cell-based. Set-up: dose 125 nL, time 70.5 hour; cytotoxicity at 70.5 h: concentration not given beside the values. The settings on record: HepG2 cells, read-out: Inhibition.
`CCc1nccn1C1CCCN(C(=O)c2cnc[nH]2)C1` (centres undefined): the cytotoxicity at 70.5 h was -3.68%. The figure for `Cc1cc(C2CCC2)nc(N2CCC3(CCCN(C)C3=O)C2)n1` (centres undefined) is -10.6%; for `CCOc1cc(CNCC2CN(C3CC3)CCO2)ccc1OC` (centres undefined) it is -8.19%; for `COc1ccc(C2SCC(=O)Nc3ccsc32)cc1` (centres undefined) it is -3.24%. In the case of `COCc1noc(-c2ccc(N(C)Cc3cc(C)no3)nc2)n1` it was -6.05%; in that of `CC(=O)Nc1ccc(SCC(O)COCc2ccc3c(c2)OCO3)cc1` (centres undefined), -4.91%; in that of `CN(CC(=O)Nc1cccc(F)c1)Cc1nc(N)nc(N(C)C)n1`, 1.01%. In the case of `CC(C)n1[nH]c(=O)c2c1NC(=O)CC2c1cccc(O)c1` (centres undefined) it was -9.65%; in that of `O=C1C[C@H]2CC[C@@H](CN1)N2C1CCSCC1`, 0.716%. With `CC(C#N)CN(C)Cc1cc(Cl)cc2cccnc12` (centres undefined), the cytotoxicity at 70.5 h is -0.893%. In the case of `Cc1cc2ccccc2n1CC(=O)Nc1ccnn1CC1CCOC1` (centres undefined) it was -14.7%. The figure for `Cc1csc(N2CCN(C(=O)CCCNc3ncccn3)CC2)n1` is -5.37%; for `Cc1cc2cc(Nc3c(C#N)c(=O)n(C)c(=O)n3C)ccc2[nH]1` it is -5.45%. In the case of `Cc1cccc(CN2C(=O)CO[C@@H]3CN(C4CCOCC4)C[C@H]32)c1` it was 0.326%. For the compound `Cc1cc(C)n(CC2CN(Cc3ccc(C(N)=O)cc3)CCO2)n1` (centres undefined), the cytotoxicity at 70.5 h is -4.76%. The figure for `Cc1c(CN2CCOCC2)c(O)n(CCc2ccccc2)c(=O)c1C#N` is -9.75%.

On to `O=C(c1cccn1Cc1cccs1)N1CCSCC1`, for which the cytotoxicity at 70.5 h was found to be 25%. With `CCOCC(=O)N1C[C@@H](O)[C@H](NC(C)=O)C1`, the cytotoxicity at 70.5 h is -4.78%. The figure for `CC1(C)[C@H]2CC=C(CN3CCCn4nc(CNS(C)(=O)=O)cc4C3)[C@@H]1C2` is -8.88%; for `CC(C)CN1CC(C(=O)NCCc2c[nH]cn2)CC1=O` (centres undefined) it is -0.927%.

Consider `CCN(C)Cc1n[nH]c(=O)n1-c1ccc(C)c(C)c1`, for which the cytotoxicity at 70.5 h was -11.7%. Regarding `COc1ccc(-c2ccc(C(=O)NS(C)(=O)=O)c(F)c2)c(F)c1`, the cytotoxicity at 70.5 h is -6.13%. In the case of `Cc1cc2ccccc2n1CCC(=O)NCCCc1nnc(N)s1` it was 33.9%; in that of `CC(=O)N1CCC(N2CCOC[C@H]2c2nc(-c3ccc(Cl)s3)c[nH]2)CC1`, -2.53%; in that of `N#Cc1ccc(OCCCN2CCc3cncnc3C2)cc1`, -0.112%. The figure for `O=C(N1CCOCC1)[C@@]12CCO[C@@H]1CCN(CCN1CCCCC1)C2` is -20.4%; for `Cn1cccc1C(=O)N1CC[C@H]2[C@H](CO[C@H]2CNS(C)(=O)=O)C1` it is -4.35%; for `COc1ncccc1NC(=O)NC(C)c1nncn1C` (centres undefined) it is -5.01%.

`O=C(O)CCCC(=O)NCC1(O)CCN(c2ccnc3cccnc23)C1` (centres undefined): the cytotoxicity at 70.5 h was 1.69%.

With `N[C@H]1CN(C(=O)c2ccc(Cl)cc2F)C[C@@H]1C1CC1`, the cytotoxicity at 70.5 h is -4.7%. In the case of `Cc1nnc(N2CCCC3(CN(c4ccccn4)CCO3)C2)o1` (centres undefined) it was 1.16%; in that of `COC(=O)NCC(=O)N1CCCC(c2ncc[nH]2)C1` (centres undefined), -27.3%. In the case of `O=C(NCC(F)F)c1ccc(S(=O)(=O)NCCc2c[nH]cn2)cc1` it was -6.02%.

`Fc1ccccc1CNc1ccnc(C2CCNCC2)c1`: the cytotoxicity at 70.5 h is 18%.

With `OCC1COCCN(c2ncccc2C(F)(F)F)C1` (centres undefined), the cytotoxicity at 70.5 h is 3.25%. With `O=c1[nH]c(C2CCOC2)nc2cc(F)c(F)cc12` (centres undefined), the cytotoxicity at 70.5 h was -10.3%. In the case of `Cc1nn(-c2ccccc2)cc1C(=O)N1CCCC1c1cnn(C)c1` (centres undefined) it was -6.59%; in that of `O=C(C1NCCc2[nH]cnc21)N1CCC2(CC1)CNc1ccccc12` (centres undefined), -11.9%. With `Cc1ccc(Nc2nccc(C3CCN(CC(N)=O)C3)n2)nc1` (centres undefined), the cytotoxicity at 70.5 h was -8.32%. Regarding `COc1c(F)ccc(C(=O)N2CC[C@H](CO)[C@@H](O)C2)c1F`, the cytotoxicity at 70.5 h is -3.48%. Turning to `Cc1ccc(-c2nc(CC(=O)NCC3CCCOC3)cs2)o1` (centres undefined), the cytotoxicity at 70.5 h is -0.602%. For the compound `Cn1ccc(C(=O)N2CCN(c3ncccn3)CC2)cc1=O`, the cytotoxicity at 70.5 h was -20.4%. The figure for `CC(NC(=O)N(C)Cc1cccc(OC(F)F)c1)c1nncn1C` (centres undefined) is -5.84%. The figure for `O=C(C1CCS(=O)(=O)C1)N1CCN(c2cnccn2)CC1` (centres undefined) is 13%.

`O=c1n(CCNCc2ccc(-c3ccccc3)cc2)nc2ccccn12`: the cytotoxicity at 70.5 h was -8.68%.

For the compound `CC(NC(=O)CCn1cccn1)c1cn(-c2ccccc2)nn1` (centres undefined), the cytotoxicity at 70.5 h was -5.23%. Consider `CCOc1cc(C(=O)N2CCCC2)cc2occc12`, for which the cytotoxicity at 70.5 h was -8.39%.

With `CC(=O)N1CCCN(C(=O)c2ccc(=O)n(C)c2)c2ccccc21`, the cytotoxicity at 70.5 h was -2.79%. In the case of `Cn1cc(C(=O)NC2CCN(Cc3ccn(C)c(=O)c3)CC2)cn1` it was -14%; in that of `CO[C@@H]1CCN(C(=O)c2cc(C)on2)C[C@@H]1Cc1ccccc1`, 20.3%; in that of `Cc1cnn(CC2CCCN2Cc2coc(-c3cccs3)n2)c1` (centres undefined), -0.977%.

For the compound `COCc1nc(N(C)C)ncc1C(=O)OC`, the cytotoxicity at 70.5 h was -4.46%.

As for `CS(=O)(=O)c1nnc(NC(=O)CCc2cc(F)ccc2F)[nH]1`, the cytotoxicity at 70.5 h is -14.9%. On to `Cc1cnn(CC2CCCN2C(=O)c2cc3ccccc3[nH]c2=O)c1` (centres undefined), for which the cytotoxicity at 70.5 h is 8.93%.

Consider `CCCN(C)C(=O)c1cc(S(=O)(=O)NCC)ccc1C`, for which the cytotoxicity at 70.5 h is -1.03%. The figure for `O=C(COc1cccc2c1CCC2=O)NCCSc1ccccc1` is 3.81%. The figure for `COc1ncccc1CN1CC[C@@]2(O)CCN(C(=O)C3CCC3)C[C@H]2C1` is -5.11%. The figure for `O=C(NCCNc1ncccn1)N1CCCC1c1ccc(F)cc1` (centres undefined) is -9.37%; for `Cc1nc(C)c(C(=O)N2CCCC2(C)C(=O)NC2CCCC2)o1` (centres undefined) it is 8.88%; for `Cc1ccc(CN2CC[C@]3(C[C@H](OCc4ccccn4)CO3)C2)o1` it is -18.4%. For the compound `Cn1ccnc1C(=O)N[C@@H]1CN(Cc2cccs2)[C@@H]2CCCO[C@@H]21`, the cytotoxicity at 70.5 h is -14.1%. In the case of `CC(C)Nc1ncnc2c1CCN(C(=O)N1CCOCC1)CC2` it was 10.6%; in that of `COCc1cn(C2CCN(Cc3ccc(Cl)s3)CC2)nn1`, -12.4%; in that of `CCN1CCC(NC(=O)CN2CCCCC2Cn2cncn2)CC1` (centres undefined), 0.615%.

Consider `Cc1cc2c(=O)n3c(nc2s1)CCN(Cc1c[nH]cn1)CC3`, for which the cytotoxicity at 70.5 h worked out at 1%. On to `CSc1nsc(NC(=O)N2CCc3ccccc3C2)n1`, for which the cytotoxicity at 70.5 h is -4.59%.

As to `COC(=O)C(c1cc(F)ccc1F)N(C)C(=O)c1cnc(C)cn1` (centres undefined), the cytotoxicity at 70.5 h is -9.59%.

`CNC(=O)c1cc(NC(=O)NCC2CCS(=O)(=O)C2)ccc1OC` (centres undefined): the cytotoxicity at 70.5 h amounted to 19.9%.

For `Cc1ncsc1CNC(=O)N(CCCO)C1CCc2ccccc21` (centres undefined), the cytotoxicity at 70.5 h was -7.98%. Consider `COc1cc(CN(C)Cc2cccnc2)c(SC)cc1OC`, for which the cytotoxicity at 70.5 h was -8.67%. The figure for `CNc1nc(CNC(=O)Nc2cccc(-c3nnco3)c2)cs1` is -18.7%; for `O=C(c1ccsc1)N1CC[C@H]2C[C@@H](c3nnc(C4CC4)o3)O[C@@H]2C1` it is -12.7%. Take `COCCCC1(CO)CCCN(C(=O)c2cnc(C3CC3)nc2)C1` (centres undefined): the cytotoxicity at 70.5 h is -4.81%. In the case of `COCC1CCN(C(=O)c2cccc(S(=O)(=O)NCC3(C)COC3)c2)C1` (centres undefined) it was -3.93%.

`c1ncc(CN2CC(Cc3nccc4cc[nH]c34)C2)cn1`: the cytotoxicity at 70.5 h was -1.22%.

As for `Cc1ccc(CN2C[C@@H](C(=O)O)[C@H](c3cccnc3)C2)s1`, the cytotoxicity at 70.5 h came out at 1.41%. In the case of `Cn1cc(-c2nnn3c2COC(CNCc2ccncc2)C3)cn1` (centres undefined) it was -2.68%. Take `Cc1cnn(CC2CN(CC(=O)N(C)Cc3ccccc3)CCO2)c1` (centres undefined): the cytotoxicity at 70.5 h came to 2.55%.

Regarding `O=C(Nc1cccc(C(F)(F)F)c1)C1CC(=O)N(Cc2ccccn2)C1` (centres undefined), the cytotoxicity at 70.5 h worked out at 34.8%. In the case of `COC(=O)N1CCC(Nc2cccc(F)c2C(C)=O)C1` (centres undefined) it was -9.32%. The figure for `CN(C)C(=O)NCC(=O)N(C)Cc1cc(-c2ccccc2)no1` is 22%; for `c1cncc(N2CCC(c3ccncc3)CC2)c1` it is 3.31%. In the case of `CN1C(=O)[C@H]2CC[C@@H]1CN(C(=O)c1sccc1S(N)(=O)=O)C2` it was -4.92%; in that of `CC(C)Nc1ncc(-c2ccncc2)c([C@@H]2CCCO2)n1`, -8.69%. Consider `CCCn1nc2c(cc1=O)CN(CC(=O)Nc1nnc(C)s1)CC2`, for which the cytotoxicity at 70.5 h is -22%. Turning to `OCCN(Cc1cccnc1)c1cnc2ccccc2n1`, the cytotoxicity at 70.5 h is -4.32%.

Take `CNc1cccc(C2CCN(C(=O)c3cccnc3)CC2)n1`: the cytotoxicity at 70.5 h is -5.08%.

With `COc1cccc(OC)c1-c1c[nH]c(C)n1`, the cytotoxicity at 70.5 h was -19.9%.

On to `CS(=O)(=O)N1CCC2(CC1)c1ccccc1[C@@H](N1CCSCC1)[C@@H]2O`, for which the cytotoxicity at 70.5 h was -0.762%.

As for `CN1CCN(C)C(CNC(=O)N(C)Cc2ccccc2Cl)C1` (centres undefined), the cytotoxicity at 70.5 h was -0.256%. In the case of `COC(C)(C)CNC(=O)C1CCC(=O)N(C2CCCC2)C1` (centres undefined) it was 0.695%; in that of `COc1ccc(Cl)cc1C(=O)NCc1cnn(C)c1C`, -0.564%; in that of `CCn1cc(CN2CCCN(C(=O)c3ccoc3C)CC2)cn1`, -7.59%. For the compound `O=S(=O)(Cc1ccccc1F)Cc1nnnn1C1CC1`, the cytotoxicity at 70.5 h was -14.6%. In the case of `O=C(CN1CCOCC1)N1CCC2(CCCN(C3CCOCC3)C2=O)C1` (centres undefined) it was 0.199%; in that of `Cc1nc(CN(Cc2cccnc2)Cc2ccsc2)c[nH]1`, 0.327%. `CCn1nc2c(cc1=O)CN(Cc1nc(N)c3ccccc3n1)CC2`: the cytotoxicity at 70.5 h is -2.07%. In the case of `Cc1cccc(C2CC(=O)Nc3c2c(=O)[nH]n3C(C)C)c1` (centres undefined) it was -11.1%; in that of `Cc1ccoc1C(=O)N1CCc2ccc(=O)n(CCN(C)C)c2CC1`, -3.74%.
